Columns and labels:
Assay in all cases: normalised viability (% of control), CellTiter-Blue; higher = more viable cells (about 100 = DMSO control)
Conditions in all cases: incubation time: 72 h
[1] = test system: CAL-51
Procedure: (§1)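 DSRT, CellTiter-Blue viability, 72 h incubation. Signal is normalised to DMSO and benzethonium chloride controls. Value is the normalised response at dose 3.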

[2] = test system: MDA-MB-231
Procedure: as §1

[3] = test system: CAL-120
Procedure: as §1

[4] = test system: MDA-MB-436
Procedure: as §1

[5] = test system: DU-4475
Procedure: as §1

[6] = test system: HCC1937
Procedure: as §1

[7] = test system: MDA-MB-453
Procedure: as §1

[8] = test system: HCC1599
Procedure: as §1

[9] = test system: MDA-MB-468
Procedure: as §1

[10] = test system: CAL-85-1
Procedure: as §1

[11] = test system: MFM-223
Procedure: as §1

[12] = test system: HDQ-P1
Procedure: as §1

[13] = test system: BT-549
Procedure: as §1

[14] = test system: BT-474
Procedure: as §1

[15] = test system: HCC1143
Procedure: as §1

[16] = test system: SK-BR-3
Procedure: as §1

[17] = test system: Hs578T
Procedure: as §1

[18] = test system: CAL-148
Procedure: as §1

[19] = test system: CAL-51; remark: listed apart in the source
Method in brief: (§2)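 Normalised viability is given for a single listed concentration of the series. In 384-well plates, breast cancer cell lines were incubated 72 h with compound, then read with CellTiter-Blue (2 h, 37 °C) at 560/590 nm. Per-plate scaling set vehicle to 100 and a positive kill control to 0, with Z'-factor quality control.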

[20] = test system: CAL-120; remark: listed apart in the source
Method in brief: as §2

[21] = test system: MDA-MB-436; remark: listed apart in the source
Method in brief: as §2

[22] = test system: DU-4475; remark: listed apart in the source
Method in brief: as §2

[23] = test system: HCC1937; remark: listed apart in the source
Method in brief: as §2

[24] = test system: HCC1599; remark: listed apart in the source
Method in brief: as §2

[25] = test system: MFM-223; remark: listed apart in the source
Method in brief: as §2

[26] = test system: HDQ-P1; remark: listed apart in the source
Method in brief: as §2

[27] = test system: BT-549; remark: listed apart in the source
Method in brief: as §2

[28] = test system: HCC1143; remark: listed apart in the source
Method in brief: as §2

[29] = test system: SK-BR-3; remark: listed apart in the source
Method in brief: as §2

[30] = test system: CAL-148; remark: listed apart in the source
Method in brief: as §2

CCS(=O)(=O)c1cccc(-c2cc(C(=O)NC3CCN(C)CC3)c(C)c3[nH]c4ncc(C)cc4c23)c1 [TAK-901]
Conditions | normalised viability [%]
[1], 1 nM | 91.7
[2], 10 nM | 103
[3], 10 nM | 86.8
[4], 10 nM | 101
[5], 1 nM | 97
[6], 10 nM | 120
[7], 1 nM | 99.1
[8], 10 nM | 103
[9], 10 nM | 105
[10], 1 nM | 98
[11], 10 nM | 81.8
[12], 1 nM | 114
[13], 10 nM | 114
[14], 10 nM | 113
[15], 10 nM | 87.6
[16], 10 nM | 97.3
[17], 10 nM | 131
[18], 1 nM | 113
[19], 0.3 nM | 98
[19], 3 nM | 92.8
[19], 10 nM | 92.1
[20], 1 nM | 84.4
[20], 100 nM | 50.5
[20], 1000 nM | 13.2
[21], 1 nM | 116
[21], 100 nM | 96.1
[21], 1000 nM | 70.6
[22], 0.3 nM | 94.7
[22], 3 nM | 88.1
[22], 10 nM | 101
[23], 1 nM | 116
[23], 100 nM | 80.7
[23], 1000 nM | 35.2
[24], 1 nM | 93.6
[24], 100 nM | 83
[24], 1000 nM | 61.4
[25], 1 nM | 96
[25], 100 nM | 55
[25], 1000 nM | 34
[26], 0.3 nM | 111
[26], 3 nM | 109
[26], 10 nM | 113
[27], 1 nM | 94.6
[27], 100 nM | 71.2
[27], 1000 nM | 20.1
[28], 1 nM | 87.3
[28], 100 nM | 64.2
[28], 1000 nM | 27.1
[29], 1 nM | 98.9
[29], 100 nM | 93.8
[29], 1000 nM | 52
[30], 0.3 nM | 90.1
[30], 3 nM | 95.3
[30], 10 nM | 101

c1ccc(C2CN3CCSC3=N2)cc1 (configuration not stated) [Tetramisole]
Conditions | normalised viability [%]
[1], 10 nM | 95.2
[2], 100 nM | 101
[3], 100 nM | 120
[4], 100 nM | 108
[5], 10 nM | 87.6
[6], 100 nM | 108
[7], 10 nM | 98.1
[8], 100 nM | 107
[9], 100 nM | 98.8
[10], 10 nM | 103
[11], 100 nM | 92.3
[12], 10 nM | 122
[13], 100 nM | 83
[14], 100 nM | 109
[15], 100 nM | 116
[16], 100 nM | 104
[17], 100 nM | 97.5
[18], 10 nM | 114
[19], 3 nM | 85.4
[19], 30 nM | 92.1
[19], 100 nM | 89.6
[20], 10 nM | 110
[20], 1000 nM | 112
[20], 10000 nM | 105
[21], 10 nM | 110
[21], 1000 nM | 111
[21], 10000 nM | 113
[22], 3 nM | 91.1
[22], 30 nM | 99.9
[22], 100 nM | 101
[23], 10 nM | 117
[23], 1000 nM | 105
[23], 10000 nM | 103
[24], 10 nM | 102
[24], 1000 nM | 91.2
[24], 10000 nM | 107
[25], 10 nM | 101
[25], 1000 nM | 96.4
[25], 10000 nM | 90.3
[26], 3 nM | 117
[26], 30 nM | 116
[26], 100 nM | 109
[27], 10 nM | 105
[27], 1000 nM | 85.6
[27], 10000 nM | 89.1
[28], 10 nM | 105
[28], 1000 nM | 118
[28], 10000 nM | 109
[29], 10 nM | 107
[29], 1000 nM | 101
[29], 10000 nM | 105
[30], 3 nM | 103
[30], 30 nM | 103
[30], 100 nM | 125

CCCC(CCC)C(=O)O [Valproic acid]
Conditions | normalised viability [%]
[1], 10 nM | 97.8
[2], 100 nM | 110
[3], 100 nM | 110
[4], 100 nM | 95.4
[5], 10 nM | 93.7
[6], 100 nM | 98.8
[7], 10 nM | 94.4
[8], 100 nM | 102
[9], 100 nM | 115
[10], 10 nM | 95.7
[11], 100 nM | 94.9
[12], 10 nM | 139
[13], 100 nM | 92
[14], 100 nM | 113
[15], 100 nM | 94.9
[16], 100 nM | 95
[17], 100 nM | 111
[18], 10 nM | 106
[19], 3 nM | 104
[19], 30 nM | 95.1
[19], 100 nM | 96.5
[20], 10 nM | 104
[20], 1000 nM | 104
[20], 10000 nM | 93.9
[21], 10 nM | 96.6
[21], 1000 nM | 89
[21], 10000 nM | 132
[22], 3 nM | 88.6
[22], 30 nM | 81.7
[22], 100 nM | 76.3
[23], 10 nM | 126
[23], 1000 nM | 86
[23], 10000 nM | 92.6
[24], 10 nM | 97.4
[24], 1000 nM | 90.7
[24], 10000 nM | 82
[25], 10 nM | 103
[25], 1000 nM | 87.2
[25], 10000 nM | 97.3
[26], 3 nM | 124
[26], 30 nM | 116
[26], 100 nM | 122
[27], 10 nM | 78.7
[27], 1000 nM | 93.1
[27], 10000 nM | 86.2
[28], 10 nM | 110
[28], 1000 nM | 104
[28], 10000 nM | 94.4
[29], 10 nM | 102
[29], 1000 nM | 107
[29], 10000 nM | 95.9
[30], 3 nM | 99.9
[30], 30 nM | 97.9
[30], 100 nM | 109

Source: the supplement of paper PMC4862054
